In brackets after ≈: the same amount, converted by molar mass. Structures can show the parent of a compound that is named as a salt. Where two headings read alike, the source gives them in different places.
Experiments:
[1] = molecular target: T1, CYP 1A2 (Homo sapiens, UniProt P05177); assay: Cytochrome-P450 isoforms liability determination; type: in vitro ADME
T1 construct: purchased
T1 sequence (P05177 1-516): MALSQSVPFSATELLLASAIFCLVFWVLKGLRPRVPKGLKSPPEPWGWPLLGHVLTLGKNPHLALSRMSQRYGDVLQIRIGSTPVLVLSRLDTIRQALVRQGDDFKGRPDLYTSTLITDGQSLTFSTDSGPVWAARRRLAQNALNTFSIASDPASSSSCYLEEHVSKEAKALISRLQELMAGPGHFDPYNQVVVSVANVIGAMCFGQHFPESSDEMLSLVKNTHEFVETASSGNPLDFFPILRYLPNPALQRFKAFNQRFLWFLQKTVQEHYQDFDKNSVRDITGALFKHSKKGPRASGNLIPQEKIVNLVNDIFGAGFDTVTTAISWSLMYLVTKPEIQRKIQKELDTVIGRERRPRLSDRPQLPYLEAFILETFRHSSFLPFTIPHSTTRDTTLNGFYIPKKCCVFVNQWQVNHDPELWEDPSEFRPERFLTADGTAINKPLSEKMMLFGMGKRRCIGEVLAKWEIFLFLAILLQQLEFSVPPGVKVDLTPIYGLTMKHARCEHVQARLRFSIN
Method: (§1) To determine the test compound liability towards Human cytochrome 450 (hCYP450) Isoforms fluorescence based screening kits.
(§2) Brief procedure: 2× test compounds were prepared by dilution with deionized water. A serial dilution of the test compound was done. 2× solution of known inhibitor were used as a positive control. 40 μL of the 2× solution that is prepared was added to the desired wells. Two replicates were included for every compound. 50 μL of the Master premix (premix of CYP450 Baclosomes, reagents and regenerating system) was dispensed into each well. The plate was incubated for 20 min at room temperature to allow the compounds to interact with the CYP450enzymes. The reaction was started by adding 10 μL of the substrate and NADP^+ mixture. The plate was incubated for the desired amount of time, and then 10 μL of stop reagent was added to each well to quench the reaction. The fluorescence was measured in the fluorescent plate reader at excitation and emission wavelengths as recommended, depending on the substrate used.

[2] = molecular target: T2, CYP 2C19 (Homo sapiens, UniProt P33261); assay: Cytochrome-P450 isoforms liability determination; type: in vitro ADME
T2 construct: purchased
Method: as §1, §2

[3] = molecular target: T3, CYP 2D6 (Homo sapiens, UniProt P10635); assay: Cytochrome-P450 isoforms liability determination; type: in vitro ADME
T3 construct: purchased
Method: as §1, §2

[4] = molecular target: T4, CYP 2C9 (Homo sapiens, UniProt P11712); assay: Cytochrome-P450 isoforms liability determination; type: in vitro ADME
T4 construct: purchased
Method: as §1, §2

[5] = Absolute aqueous solubility; type: physicochemical; details: 25 °C, thermodynamic from solid; water, about 6 hrs equilibration, 25 deg centigrade, UV
Method: The objective of the study was to determine the absolute solubility of the powder form of the test compounds in water. Brief procedure: The powder form of test compounds was allowed to saturate in an aqueous medium and is equilibrated for about 6 hrs until the compound precipitates. The precipitated solution was centrifuged at 15,000 rpm for 10 mins at 25 deg centigrade and the supernatant solution was analyzed by UV spectrometry. If required the supernatant was diluted further until the absorbance by UV spectroscopy was within the limits of the standard curve obtained with the test compound. λmax was selected from UV spectra having maximum absorbance for that compound.

[6] = Metabolic stability in mouse liver microsomes; type: in vitro ADME; details: 100 μM, 37° C.
Method: The objective of the study is to determine the metabolic stability of the compounds in mouse liver microsomes. Brief procedure: metabolic stability of test compounds were carried out using mouse liver microsomes. The final composition of the assay includes test compound 100 μM (dissolved in DMSO), mouse microsomal protein 0.5 mg/mL and cofactors (G-6-P 5.0 mM, G-6-PDH 0.06 U, MgCl2 2.0 mM, NADP+1.0 mM, UDPGA 0.5 mM, PAPS 0.6 mM and GSH 1 mM). The test compounds were incubated at with mouse liver microsomes with cofactors. After 1 h incubation at 37° C., the reaction was stopped by addition of stop solution (ice cold acetonitrile). The samples were centrifuged and supernatants were analysed using LC/MS/MS. The Percent of parent test compounds remaining after 1 h of incubation time was calculated with respect to the peak areas of at time 0.

[7] = test system: PC-3; assay: Cell proliferation assay (MTT); type: cell-based; details: Homo sapiens
Method: (§3) Cells were seeded in a 96-well cell culture plates at a concentration of 10,000 cells per well and incubated at 37° C. in CO2 incubator.
(§4) Twenty-four hours later cells were treated with different concentrations (100, 10, 1, 0.1, and 0.01 μM) of compound dissolved in DMSO and incubated for 48 hours. For To measurement, 24 hours after seeding the cells, 20 μL of 3-(4.5-dimethyl-2- thiazolyl)-2,5-diphenyl-2H-tetrazolium (MTT) solution per well was added to the T0 plate and incubated for 3 hours at 37° C. in a CO2 incubator.
(§5) The plate containing cells and test compounds was treated similarly after 48 hours of incubation. After 3 hours of MTT addition, well contents were aspirated carefully followed by addition of 100 μL DMSO per well. Plates were agitated to ensure dissolution of the formazan crystals in DMSO and absorbance was read at 570 nm (A570). […] From the percentage growths a dose response curve was generated and GI50 values were interpolated from the growth curves.

[8] = test system: HT-29; assay: Cell proliferation assay (MTT); type: cell-based; details: Homo sapiens
Method: as §3, §4, §5

[9] = test system: A549; assay: Cell proliferation assay (MTT); type: cell-based; details: Homo sapiens
Method: as §3, §4, §5

[10] = test system: DU-145; assay: Anti-proliferative activity (GI50); type: cell-based; details: Homo sapiens
Method: as §3, §4, §5

[11] = test system: MCF-7; assay: Anti-proliferative activity (GI50); type: cell-based; details: Homo sapiens
Method: as §3, §4, §5

[12] = test system: PANC-1; assay: Anti-proliferative activity (GI50); type: cell-based; details: Homo sapiens
Method: as §3, §4, §5

[13] = test system: HCT-116; assay: Anti-proliferative activity (GI50); type: cell-based; details: Homo sapiens
Method: as §3, §4, §5

[14] = test system: KHOS; assay: Anti-proliferative activity (GI50); type: cell-based; details: read-out: Anti-proliferative activity (GI50) KHOS
Method: as §3, §4, §5

[15] = fluorescence based kit, read-out: CYP liability (IC50 in μM) CYP 1A2
[16] = fluorescence based kit, read-out: CYP liability (IC50 in μM) CYP 2C19
[17] = fluorescence based kit, read-out: CYP liability (IC50 in μM) CYP 2D6
[18] = fluorescence based kit, read-out: CYP liability (IC50 in μM) CYP 2C9
[19] = PC-3, Table 1, MTT, 48 hours, read-out: Cell growth inhibition (GI50 in μM) PC-3
[20] = PC-3, Table 9, Prostate, read-out: Anti-proliferative activity (GI50) PC-3
[21] = HT-29, Table 9, Colon, read-out: Anti-proliferative activity (GI50) HT-29
[22] = A549, Table 1, MTT, 48 hours, read-out: Cell growth inhibition (GI50 in μM) A549
[23] = A549, Table 9, Lung, read-out: Anti-proliferative activity (GI50) A549
[24] = DU-145, Table 9, Prostate, read-out: Anti-proliferative activity (GI50) DU-145
[25] = MCF7, Table 9, Breast, read-out: Anti-proliferative activity (GI50) MCF-7
[26] = PANC-1, Table 9, Pancreas, read-out: Anti-proliferative activity (GI50) PANC-1
[27] = HCT-116, Table 9, Colon, read-out: Anti-proliferative activity (GI50) HCT-116
[28] = HT-29, Table 1, MTT, 48 hours, read-out: Cell growth inhibition (GI50 in μM) HT-29

T3 sequence (P10635 whole entry, canonical isoform): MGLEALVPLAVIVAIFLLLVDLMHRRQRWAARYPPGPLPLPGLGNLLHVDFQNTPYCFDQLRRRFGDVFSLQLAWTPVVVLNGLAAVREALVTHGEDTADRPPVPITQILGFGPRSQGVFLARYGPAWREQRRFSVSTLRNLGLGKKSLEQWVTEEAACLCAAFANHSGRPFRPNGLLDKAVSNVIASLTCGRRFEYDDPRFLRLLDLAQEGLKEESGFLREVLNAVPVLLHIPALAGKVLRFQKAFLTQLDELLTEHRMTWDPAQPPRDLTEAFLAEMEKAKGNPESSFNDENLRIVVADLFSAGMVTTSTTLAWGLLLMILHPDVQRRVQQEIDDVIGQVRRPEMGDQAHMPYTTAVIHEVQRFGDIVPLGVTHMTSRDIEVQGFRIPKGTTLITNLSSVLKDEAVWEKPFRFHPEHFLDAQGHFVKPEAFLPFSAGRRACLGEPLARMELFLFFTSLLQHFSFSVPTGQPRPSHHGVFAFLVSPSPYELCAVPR
T2 sequence (P33261 whole entry, canonical isoform): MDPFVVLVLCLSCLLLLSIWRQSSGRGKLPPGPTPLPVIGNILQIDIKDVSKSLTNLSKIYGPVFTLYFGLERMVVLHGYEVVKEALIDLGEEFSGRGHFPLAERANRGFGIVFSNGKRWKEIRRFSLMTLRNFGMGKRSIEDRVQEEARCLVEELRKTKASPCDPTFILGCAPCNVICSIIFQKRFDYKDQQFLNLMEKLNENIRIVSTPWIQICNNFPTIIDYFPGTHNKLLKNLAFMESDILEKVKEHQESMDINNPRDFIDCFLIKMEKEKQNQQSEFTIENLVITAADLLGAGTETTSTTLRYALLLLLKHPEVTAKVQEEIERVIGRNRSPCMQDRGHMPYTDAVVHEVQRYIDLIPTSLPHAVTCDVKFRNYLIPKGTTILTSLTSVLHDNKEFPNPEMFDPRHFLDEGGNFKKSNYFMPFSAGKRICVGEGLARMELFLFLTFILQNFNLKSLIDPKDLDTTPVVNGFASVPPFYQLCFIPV
T4 sequence (P11712 whole entry, canonical isoform): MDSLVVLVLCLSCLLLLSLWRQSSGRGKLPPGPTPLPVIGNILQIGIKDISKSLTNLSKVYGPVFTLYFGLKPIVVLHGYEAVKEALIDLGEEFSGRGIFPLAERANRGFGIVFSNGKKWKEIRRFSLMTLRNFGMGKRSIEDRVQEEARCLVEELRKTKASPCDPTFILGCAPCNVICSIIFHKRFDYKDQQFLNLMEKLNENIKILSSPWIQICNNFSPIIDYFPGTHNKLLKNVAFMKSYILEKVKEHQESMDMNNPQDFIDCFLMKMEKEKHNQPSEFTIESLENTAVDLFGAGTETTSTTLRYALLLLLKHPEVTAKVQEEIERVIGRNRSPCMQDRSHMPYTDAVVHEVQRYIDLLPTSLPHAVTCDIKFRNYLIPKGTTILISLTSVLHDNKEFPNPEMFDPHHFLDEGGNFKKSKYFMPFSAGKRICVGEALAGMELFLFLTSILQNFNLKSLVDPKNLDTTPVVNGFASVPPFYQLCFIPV

SMILES	IC50 [1, 15] [µM]	IC50 [2, 16] [µM]	IC50 [3, 17] [µM]	IC50 [4, 18] [µM]	solubility [5] [µg/mL]	% Stable compounds after 1 hr incubation [6] [%]	GI50 [7, 19] [µM]	GI50 [7, 20] [µM]	GI50 [8, 21] [µM]	GI50 [9, 22] [µM]	GI50 [9, 23] [µM]	GI50 [10, 24] [µM]	GI50 [11, 25] [µM]	GI50 [12, 26] [µM]	GI50 [13, 27] [µM]	GI50 ([14]; Table 9, Bone) [µM]	GI50 [8, 28] [µM]	also measured
O=C(NO)c1ccc(Cn2cc(-c3ccc(CN4CCOCC4)cc3)nn2)cc1 [Example 9, N-Hydroxy-4-[4-(4-morpholin-4-ylmethyl-phenyl)-[1,2,3]triazol-1-ylmethyl]-benzamide]	> 60	> 60	> 60	> 60	4700 (≈ 11.9 mM)	100	22 ± 5.4	13.4 ± 3.3	1.5 ± 0.65	5 ± 1.6	4.5 ± 2.33	0.3 ± 0.124	5.7 ± 1.62	6.6	1.2 ± 0.018	2.8 ± 0.36	–	–
O=C(/C=C/c1ccc(Cn2cc(-c3ccc(CN4CCCC4)cc3)nn2)cc1)NO [Example 16, N-Hydroxy-3-{4-[4-(4-pyrrolidin-1-ylmethyl-phenyl)-[1,2,3]triazol-1-ylmethyl]-phenyl}-acrylamide]	> 60	> 60	13.2	> 60	9400 (≈ 23.3 mM)	98	12.6 ± 7.6	3.5 ± 2.7	0.15 ± 0.13	1.7 ± 1	1.58 ± 1.1	0.079 ± 0.04	3.5 ± 2.6	1.03	0.1 ± 0.11	11.7 ± 1.1	0.04	–
O=C(CCCCCCC(=O)Nc1ccccc1)NO [SAHA, Suberoylanilide Hydroxamic Acid, reference compound]	–	–	–	–	230 (≈ 0.87 mM)	67	–	–	–	–	–	–	–	–	–	–	–	IC50 [1]: 9.7 µM; IC50 [2]: 2.9 µM; IC50 [3]: 3.6 µM; IC50 [4]: 29.7 µM; GI50 ([7]; PC-3, read-out: Anti-proliferative activity (GI50) PC-3): 8.3 ± 0.6 µM; GI50 ([8]; HT-29, read-out: Anti-proliferative activity (GI50) HT-29): 3.6 ± 2.6 µM; GI50 ([9]; A549, read-out: Anti-proliferative activity (GI50) A549): 5.9 ± 2.4 µM; GI50 ([10]; DU-145, read-out: Anti-proliferative activity (GI50) DU-145): 1.3 µM; GI50 ([11]; MCF7, read-out: Anti-proliferative activity (GI50) MCF-7): 5.5 ± 1.2 µM; GI50 ([12]; PANC-1, read-out: Anti-proliferative activity (GI50) PANC-1): 21.9 µM; GI50 ([13]; HCT-116, read-out: Anti-proliferative activity (GI50) HCT-116): 2.2 µM; GI50 [14]: 29.3 ± 7.2 µM
CN(C)Cc1ccc(-c2cn(Cc3ccc(/C=C/C(=O)NO)cc3)nn2)cc1 [Example 21]	> 60	> 60	> 60	> 60	11600 (≈ 30.7 mM)	65	11.3 ± 8.3	4.8 ± 1.4	2.1 ± 0.46	2.2 ± 2.3	2.2 ± 2.22	0.1 ± 0.04	5.5 ± 1.2	1.4	0.2 ± 0.04	10.3 ± 3.26	–	–
O=C(/C=C/c1cccc(Cn2cc(-c3ccc(CN4CCOCC4)cc3)nn2)c1)NO [Example 25, N-Hydroxy-3-{3-[4-(4-morpholin-4-ylmethyl-phenyl)-[1,2,3]triazol-1-ylmethyl]-phenyl}-acrylamide hydrochloride]	> 60	> 60	> 60	51.5	2900	57	4 ± 3.9	1.7 ± 1.02	0.4 ± 0.13	2.5 ± 0.8	2 ± 1.52	0.1 ± 0.03	2.1 ± 2.63	4	0.2 ± 0.05	4.6 ± 0.55	0.2	–
O=C(NO)c1ccc(Cn2cc(-c3ccc(CN4CCCC4)cc3)nn2)cc1 [Example 8, N-Hydroxy-4-[4-(4-pyrrolidin-1-ylmethyl-phenyl)-[1,2,3]triazol-1-ylmethyl]-benzamide]	> 60	> 60	26	> 60	5100 (≈ 13.5 mM)	100	16.8 ± 8.8	4.1 ± 0.38	1.3 ± 0.33	4.1 ± 0.6	3.1 ± 1.99	0.2 ± 0.06	2.6 ± 1.26	1.3	0.1 ± 0.04	2.4 ± 0.4	0.2	–
